From ChEMBL document CHEMBL1201862, “PubChem BioAssay data set” (2004)
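Following 48 hours of exposure in 96-well plates, responses at five concentrations were used to interpolate endpoints linearly. Abbreviation: GI50, concentration required for 50% inhibition of growth.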 The source made the active and inactive calls. No stated cut-off is given here; in the data, active = GI50 up to about 1.1 µM and inactive = higher.

Tests used:
Test in all cases: NCI anticancer screen, dose series, 48 h
[1] = test system: MOLT-4
[2] = test system: OVCAR-4
[3] = test system: IGROV-1
[4] = test system: EKVX
[5] = test system: OVCAR-3
[6] = test system: DLD-1
[7] = test system: RXF 631
[8] = test system: RXF 393
[9] = test system: HCT-15
[10] = test system: HOP-92
[11] = test system: OVCAR-8
[12] = test system: NCI-H23
[13] = test system: SK-MEL-5
[14] = test system: SF-268
[15] = test system: DMS-273
[16] = test system: M19-MEL
[17] = test system: SNB-78
[18] = test system: U-251
[19] = test system: SNB-75
[20] = test system: HOP-18
[21] = test system: SW-620
[22] = test system: LXFL 529
[23] = test system: NCI-H522
[24] = test system: SK-OV-3
[25] = test system: 786-0
[26] = test system: Malme-3M
[27] = test system: CCRF-CEM
[28] = test system: M14
[29] = test system: A498
[30] = test system: SF-539
[31] = test system: XF498
[32] = test system: SF-295
[33] = test system: K562
[34] = test system: DMS-114
[35] = test system: SN12C
[36] = test system: COLO 205
[37] = test system: LOX IMVI
[38] = test system: RPMI-8226
[39] = test system: SNB-19
[40] = test system: NCI-H226
[41] = test system: SR
[42] = test system: ACHN
[43] = test system: A549
[44] = test system: SK-MEL-28
[45] = test system: HT-29
[46] = test system: HCC 2998
[47] = test system: UO-31
[48] = test system: UACC-257
[49] = test system: HCT-116
[50] = test system: KM-20L2
[51] = test system: UACC-62
[52] = test system: HL-60

SMILES: O=C1NC(=O)C(C(=O)C(=O)Nc2ccc(Br)cc2)C(=O)N1
- GI50 [1]: > 100 µM (inactive)
- GI50 [2]: > 100 µM (inactive)
- GI50 [3]: > 100 µM (inactive)
- GI50 [4]: > 100 µM (inactive)
- GI50 [5]: > 100 µM (inactive)
- GI50 [6]: > 100 µM (inactive)
- GI50 [7]: > 100 µM (inactive)
- GI50 [8]: 5.04 µM (inactive)
- GI50 [9]: > 100 µM
- GI50 [10]: > 100 µM (inactive)
- GI50 [11]: > 100 µM (inactive)
- GI50 [12]: > 100 µM (inactive)
- GI50 [13]: > 100 µM (inactive)
- GI50 [14]: > 100 µM (inactive)
- GI50 [15]: > 100 µM (inactive)
- GI50 [16]: > 100 µM (inactive)
- GI50 [17]: > 100 µM (inactive)
- GI50 [18]: > 100 µM (inactive)
- GI50 [19]: 12.1 µM (inactive)
- GI50 [20]: > 100 µM (inactive)
- GI50 [21]: > 100 µM (inactive)
- GI50 [22]: > 100 µM (inactive)
- GI50 [23]: > 100 µM (inactive)
- GI50 [24]: > 100 µM (inactive)
- GI50 [25]: > 100 µM (inactive)
- GI50 [26]: > 100 µM (inactive)
- GI50 [27]: > 100 µM (inactive)
- GI50 [28]: > 100 µM (inactive)
- GI50 [29]: > 100 µM (inactive)
- GI50 [30]: > 100 µM (inactive)
- GI50 [31]: > 100 µM (inactive)
- GI50 [32]: > 100 µM (inactive)
- GI50 [33]: > 100 µM (inactive)
- GI50 [34]: > 100 µM (inactive)
- GI50 [35]: > 100 µM (inactive)
- GI50 [36]: > 100 µM (inactive)
- GI50 [37]: > 100 µM (inactive)
- GI50 [38]: > 100 µM (inactive)
- GI50 [39]: > 100 µM (inactive)
- GI50 [40]: > 100 µM (inactive)
- GI50 [41]: > 100 µM (inactive)
- GI50 [42]: > 100 µM (inactive)
- GI50 [43]: > 100 µM (inactive)
- GI50 [44]: > 100 µM (inactive)
- GI50 [45]: > 100 µM (inactive)
- GI50 [46]: > 100 µM (inactive)
- GI50 [47]: > 100 µM (inactive)
- GI50 [48]: > 100 µM (inactive)
- GI50 [49]: > 100 µM (inactive)
- GI50 [50]: > 100 µM (inactive)
- GI50 [51]: > 100 µM (inactive)
- GI50 [52]: > 100 µM (inactive)
